IC50 data for 7 compounds are collected here from US7897625B2, “Carbamoylbenzotriazole derivatives as inhibitors of lipases and phospholipases” (Sanofi-Aventis, priority 2005, dated 2011).

The structures appear in SMILES notation.

For the assay, the target named is T1, Endothelial lipase (Homo sapiens, UniProt Q9Y5X9).
T1 construct: made in house; host or cells: CHO, HEK293 (recombinant cell lines; concentrated conditioned medium used as enzyme solution)
T1 sequence (Q9Y5X9 21-500): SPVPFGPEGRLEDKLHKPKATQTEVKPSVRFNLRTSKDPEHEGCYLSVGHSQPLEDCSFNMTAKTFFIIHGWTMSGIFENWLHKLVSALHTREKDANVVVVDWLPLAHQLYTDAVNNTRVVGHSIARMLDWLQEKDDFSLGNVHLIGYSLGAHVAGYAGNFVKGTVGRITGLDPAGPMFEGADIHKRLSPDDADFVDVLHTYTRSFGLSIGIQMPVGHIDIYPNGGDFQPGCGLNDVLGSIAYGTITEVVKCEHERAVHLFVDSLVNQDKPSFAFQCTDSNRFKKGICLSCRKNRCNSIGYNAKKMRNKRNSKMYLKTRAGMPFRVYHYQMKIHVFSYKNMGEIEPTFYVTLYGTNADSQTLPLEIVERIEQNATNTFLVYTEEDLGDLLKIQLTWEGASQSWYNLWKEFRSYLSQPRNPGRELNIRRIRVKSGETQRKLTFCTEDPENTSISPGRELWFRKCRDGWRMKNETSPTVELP
Nature of the assay: EL inhibition assay. Type of assay: biochemical. The settings on record: values marked * are IC50 values of a mixture of the indicated regioisomers; 37° C., 60 minutes, Bodipy phospholipid substrate. The procedure: The activity of the compounds of the invention of the formula I was tested in the following enzyme assay system: […]
Endothelial lipase is released as secretory protein in high concentration into cell culture medium (conditioned medium) by recombinant cell lines (CHO, HEK293). This is employed as enzyme solution after concentration.
The phospholipase-specific substrate 1,2-bis(4,4-difluoro-5,7-dimethyl-4-bora-3a,4a-diaza-s-indacene-3-undecanoyl)-sn-glycero-3-phosphocholine, (manufacturer Molecular Probes) is used to characterize the enzymatic activity of endothelial lipase and the effect of inhibitors. Hydrolysis of the A1 ester linkage of this phospholipid by the enzyme liberates the fluorescent dye Bodipy which can be detected after separation by thin-layer chromatography on an HPTLC plate (silica gel 60, Merck) or directly in the reaction vessel by measuring the fluorescence.
The substrate solution is prepared by taking up 100 μg of 1,2-bis(4,4-difluoro-5,7-dimethyl-4-bora-3a,4a-diaza-s-indacene-3-undecanoyl)-sn-glycero-3-phospho-choline (manufacturer Molecular Probes), 2.4 mg of tripalmitin (Sigma) and 7.9 mg of DOP—choline (1,2-dioleoyl-sn-glycero-3-phosphocholine) in 393 μl of chloroform and then transferring 157 μl into a fresh reaction vessel. After evaporation of the solvent, the lipid mixture is dissolved in 4 ml of 200 mM TRIS-HCl, 150 mM sodium chloride, pH=7.4, by sonication twice. The subsequent enzymic reaction takes place at 37° C. for 60 minutes. For this purpose, 45 μl of the substrate solution are incubated with 1 μl of inhibitor of appropriate concentration (dissolved in DMSO, pure DMSO solution is used as control) and 5 μl of enzyme solution (conditioned medium). Then 3 μl of the assay mixture are loaded onto an HPTLC plate (silica gel 60, Merck), and the liberated fluorescent dye is separated for detection with an eluent (diethyl ether:petroleum benzene:acetic acid [78:22:1]). After evaporation of the eluent, the plate is read in a fluorescence scanner. An increased release of the fluorescent dye in the uninhibited reaction is to be observed as a measure of the enzymic activity.
The enzymatic activity is reduced as a function of the inhibitor concentration used, and the inhibitor concentration at which a half-maximum enzymic activity is observed is called IC50.
What is called IC50 is the concentration needed to halve the response being measured. For `Cc1ccsc1CNC(=O)n1nnc2ccccc21` [Example 9], the IC50 came out at 80 nM.

In the case of `N#Cc1ccc2sc(CNC(=O)n3nnc4ccccc43)cc2c1` [Example 10], the IC50 was found to be 510 nM.

For `C[C@H](NC(=O)n1nnc2ccccc21)c1ccccc1` [Example 36], the IC50 turned out to be 710 nM. Turning to `Cc1cccc(CNC(=O)n2nnc3ccccc32)c1` [Example 1], the IC50 stood at 20 nM. As for `O=C(NCc1ccc(Cl)cc1)n1nnc2ccccc21` [Example 28], the concentration for half-maximal inhibition (IC50) was found to be 440 nM. The figure for `O=C(NCc1ccc(-c2cccs2)s1)n1nnc2ccccc21` [Example 15] is 520 nM; for `C[C@@H](NC(=O)n1nnc2ccccc21)c1ccccc1` [Example 23] it is 31 nM.
